ChEMBL document CHEMBL1201862, “PubChem BioAssay data set” (2004)
Activity calls are given as the source filed them.

Experiments:
[1] = molecular target: Mitogen-activated protein kinase 10 (Homo sapiens, UniProt P53779); assay: Dose response biochemical screening assay for inhibitors of c-Jun N-Terminal Kinase 3 (JNK3). [Related pubchem assays: 746 ]
cells [2] = format: functional, cell-based
[3] = growth inhibition of yeast DHODH-expressing 3D7 parasites – SYBR Green, dry powder samples, dose response (AID 1159570); format: functional, cell-based;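 note: parasite growth measured after 72 hours of compound exposure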
[4] = P. falciparum Dd2 growth inhibitors, dose response, SYBR Green, cherry-picked samples (AID 1159567); format: functional, cell-based
[5] = Dd2 malaria parasite growth inhibition potency – SYBR Green, dry powder samples, dose response (AID 1159566); format: functional, cell-based;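 note: potency for growth inhibition with lower SYBR green DNA signal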
[6] = growth inhibition of PfATP4-mutant resistant parasites – NITD609-resistant line, SYBR Green, dry powder, dose response (AID 1159571); format: functional, cell-based;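 note: parasites synchronized at ring stage by sorbitol before testing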
[7] = molecular target: Oxysterols receptor LXR-beta (Homo sapiens, UniProt P55055); format: functional, cell-based;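 note: Cell-based luminescence dose-response assay of agonist activity at LXR, run as a confirmatory counterscreen to a daf-12 agonist screen; HEK293 cells with Gal4-LXR fusion and GAL4-driven luciferase reporter; agonist potency from rising luciferase signal of a Gal4-LXR reporter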
cells [8] = assay: cells
[9] = toxicity to human hepatoma HepG2 cells – cell-based, cherry-picked samples, cytotoxicity control, dose response (AID 1159577); format: functional
[10] = molecular target: Bifunctional protein GlmU (Mycobacterium tuberculosis, UniProt P9WMN3); assay: Inhibitors of Mycobacterial Glucosamine-1-phosphate acetyl transferase (GlmU). Secondary screen.; design: species or system Mycobacterium tuberculosis H37Rv
[11] = HIV-1 Vif–A3G interaction blockers – biochemical, TR-FRET, GST-Vif 1-94, biotin-A3G peptide, dose response retest, primary screen (AID 1117319); format: functional;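 note: TR-FRET signal of purified GST-Vif binding a biotinylated A3G peptide; inhibitors lower the FRET signal by blocking Vif and A3G binding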
[12] = HGIII-sPLA2 enzyme inhibition potency – biochemical, QFRET, IC50, dose response (AID 743457);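 note: green fluorescence rise as the enzyme cleaves BODIPY PC-A2 in liposomes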
[13] = Luminescence Cell-Based Dose Retest to Confirm Inhibitors of Cancer Stem Cells. [Related pubchem assays (depositor defined):AID2717, AID2721]; format: functional; conditions: Homo sapiens
[14] = molecular target: Eukaryotic translation initiation factor 4E (Mus musculus, UniProt P63073); assay: blockers of eIF4G binding by eIF4E – biochemical, TR-FRET, dose response (AID 855); format: functional;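 note: potency for disrupting eIF4E binding to eIF4GI seen as loss of FRET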
[15] = molecular target: RNA-editing ligase 1, mitochondrial (Trypanosoma brucei brucei, UniProt P86926); assay: inhibition of trypanosome RNA editing ligase – biochemical, fluorescence, Trypanosoma brucei, dose response (AID 1117295); format: functional
Major prion protein = Major prion protein (Homo sapiens, UniProt P04156); format: functional, cell-based
cells [16] = assay: cells; remark: listed apart in the source
[17] = molecular target: Disintegrin and metalloproteinase domain-containing protein 17 (Homo sapiens, UniProt P78536); assay: exosite inhibitors of ADAM17, dose response, biochemical (AID 743260)
[18] = inhibition of ADAM10 peptide cleavage – biochemical, FRET peptide substrate, recombinant human ADAM10, selectivity assay for ADAM17 exosite inhibitor project, dose response (AID 743259);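 note: ADAM10 enzyme cleaving a FRET peptide substrate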
[19] = molecular target: ADP-ribosylation factor GTPase-activating protein 1 (Rattus norvegicus, UniProt Q62848); assay: Fluorescence polarization-based biochemical high throughput dose response screening assay to identify inhibitors of ADP-ribosylation factor GTPase activating protein 1 (ARFGAP1).; format: functional
[20] = molecular target: Arf-GAP with SH3 domain, ANK repeat and PH domain-containing protein 1 (Homo sapiens, UniProt Q9ULH1); format: functional;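 note: biochemical fluorescence polarization dose–response screen measuring inhibition of ASAP1; ASAP1 GAP domain stimulating GTP hydrolysis by truncated human ARF1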

In the case of `CCCN1Cc2cccc(C(=O)NCc3ccccc3)c2C1=O`, the IC50 [1] is reported as 57.8 µM (not active).
For `CCc1nnc(NS(=O)(=O)c2ccc(N/C=C3/C(=O)NC(=O)N(c4ccccc4)C3=O)cc2)s1`, the IC50 (cells [2]) was 64.4 µM (inactive).
With `COc1ccc(-c2ccccc2[C@H]2[C@@H](C#N)N(C(=O)NC(C)C)[C@H]2CO)cc1` the AC50 [3] was 2.01 µM (active), the AC50 [4] was 2.04 µM (active) and the AC50 [5] was 2.21 µM (active). The AC50 [6] was 4.81 µM (active).
In the case of `Cc1cc2c(cc1C)NP(=S)(c1ccccc1)N2`, the EC50 [7] is reported as > 67.6 µM (inactive) and the EC50 (cells [8]) is reported as > 67.6 µM (inactive).
In the case of `COc1ccc2c3c(n(C)c2c1)[C@H](CO)NCC31CCN(Cc2ccc(Cl)cc2)CC1`, the AC50 [4] is reported as 0.504 µM (active) and the AC50 [9] is reported as 17.7 µM (active).
For `Nc1nonc1C(=O)N/N=C/c1ccc(-c2cccc(C(=O)O)c2)o1`, the IC50 [10] was 188 µM (active).
For `CCC1S/C(=C(\C#N)C(=O)NCc2ccco2)N(c2ccc(F)cc2)C1=O` (stereo not drawn), the IC50 [11] was > 100 µM (active).
For `CC(C)Oc1ccc(CC(=O)NN=C(S)Nc2ccccc2)cc1`, the IC50 [12] was > 122 µM (inactive).
For `COc1ccc(CN2C(=O)c3cccnc3C2Nc2cc(Cl)ccc2OC)cc1` (stereo not drawn), the AC50 [13] was > 195 µM (inactive), the IC50 [14] was 14.4 µM (active) and the IC50 [15] was 16.1 µM (inactive).
With `Cc1nn(C(C)C(=O)O)c(=O)c2c1sc1ccccc12` (stereo not drawn) the IC50 [1] was > 93.1 µM (not active), the IC50 (Major prion protein) was 8.45 µM (active) and the IC50 (cells [16]) was > 138 µM (inactive).
With `CCc1nc2ccc(C(=O)Nc3ccc4c(c3)OCC(=O)N4)cn2c1N(CC)Cc1cccc(Br)c1` the IC50 [17] was > 69.5 µM (inactive) and the IC50 [18] was > 69.5 µM (inactive).
For `O=C(NCc1ccncc1)C(=O)N/N=C/c1ccc(OCc2ccccc2)cc1`, the IC50 [19] was 10.3 µM (inactive) and the IC50 [20] was 13.2 µM (inactive).
